Data reported in patent publication US20160008336A1, “HDAC INHIBITORS FOR THE TREATMENT OF TRAUMATIC BRAIN INJURY” (Lixte Biotechnology, Inc., priority 2013, published 2016).
Entries after “also recorded” stand apart in the source; their conditions may differ.

Experiments:
[1] = tested on: rodent brains following TBI (controlled cortical impact); assay: FDG-PET imaging of rat brains after TBI; format: in vivo; conditions: for glucose uptake levels: rat brain cells following TBI, activity expected analogous to 205
Experimental: (§1) The rats are anesthetized as described above. The rodent's head is be shaved, the animal placed in a stereotaxic device, the skin is prepared as in the Aseptic Techniques described above and the skull exposed using a small surgical incision over the temporal scalp. A small surgical incision (9-10 mm), a burr hole in the skull (5-6 mm), and a single contusion over the right frontal cortex is performed (FIG. 7). A 5.0 mm burr hole is drilled into the skull with a hand-held trephine to expose the dura mater. […] A single contusion is then made onto the surface of the dura (tip penetration depth of 2.1 mm, velocity of 5 m/s) over the left frontal cortex. Following CCI, the burr hole is covered with a bone flap, sealed with Jet Denture Repair Professional Package, and then the incision is closed with non-absorbable suture in a simple interrupted pattern. Sham-treated controls are treated similarly, but the impactor is not activated.
(§2) TBI rodent model animals are treated with HDACis post-surgery at 4 h, 24 h and 48 h. The efficiency of HDACi treatment is evaluated as shown in FIG. 9 by studying the following parameters: • A=FDG-PET imaging analysis • B=Rota behavior test • C=Pathology analysis (H&E, IHC, IF, & gross) • D=Frozen samples (2D gel and WB) • E=Harvest animals and procure brain samples • Tx=HDI treatment
FDG-PET imaging is conducted in larger animal cohorts treated with different drug concentrations to further confirm HDACis potential therapeutic effect in treating TBI and in increasing […].
^18F-FDG is purchased from the Nuclear Pharmacy of Cardinal Health, and reconstituted with sterile saline. PET scans and image analysis are performed using an Inveon microPET scanner (Siemens Medical Solutions). Each rat is injected with 18.5 MBq (500 μCi) of ^18F-FDG via tail vein. All the rats are maintained under anesthesia and warmed condition. 10 min static scans are acquired at 1 h after injection. The images are reconstructed using a two-dimensional ordered-subset expectation maximum (OSEM) algorithm, and no correction is applied for attenuation or scatter. For each microPET scan, regions of interest (ROIs) are drawn over the brain and muscle region using vendor software ASI Pro 5.2.4.0 on decay-corrected whole-body coronal images. The radioactivity accumulation within brain, heart and brown fat are obtained from mean pixel values within the multiple ROI volumes and then converted to megabecquerels (MBq) per milliliter […] using a conversion factor. These values are then divided by the administered activity to obtain (assuming a tissue density of 1 g/ml) an image-ROI-derived percent injected dose per gram (% ID/g).

Caspase 3 = assay: Western blot of TBI brain tissue, Caspase 3; format: in vivo, rat; conditions: for Pro-Caspase 3 expression: rat brain cells following TBI
Experimental: as §2
(§3) Sections of frozen tissue protein from normal brain and TBI tissues in the injury area are extracted in T-PER solution, sonicated and centrifuged at 15,000 g at 4° C. to remove insoluble debris. The supernatant is used as the lysate. The protein concentration in each sample is measured by a colorimetric assay (Bio-Rad Protein Assay Kit) (Bio-Rad; Hercules, Calif.). Samples are denatured at 95° C. for 5 minutes in protein loading buffer. Equal amounts of protein at thirty micrograms of each lysate is loaded onto 4%-20% SDS-polyacrylamide gel (Invitrogen), and the proteins are electrophoretically transferred to nitrocellulose membranes and blocked with 5% milk solution. Detection of protein-bound primary antibodies is performed with a horseradish peroxidase-conjugated secondary antibody specific to rabbit or mouse immunoglobulin for one hour and an enhanced chemiluminescence system. Expression of specific proteins in each sample are determined and TBI injury tissue protein expression are compared to normal brain.

Nestin = assay: Immunofluorescence / immunohistochemistry after TBI, Nestin; format: in vivo, rat
Experimental: as §2
(§4) Immunohistochemistry staining is performed using commercially available GFAP and Nestin primary antibodies (Abcam) on formalin-fixed paraffin-embedded tissue mounted on positively charged slides. The expression of Nestin is thought to identify neural stem and progenitor cells within the central nervous system. GFAP expression, however, is thought to represent astrocyte activation. Samples are labeled and visualized using a DAB staining kit (EnvisionKit; Dako, Carpinteria, Calif., USA). Immunofluorescence staining is also performed (with primary antibodies for GFAP and Nestin) in order to best assess the spatial and temporal pattern of expression of molecular markers associated with astrocyte activation and gliosis observed during the brain tissue injury repair process. The specimens are visualized using a Zeiss LSM 510 confocal microscope (Carl Zeiss, Thornwood, N.Y., USA).

phosphorylated-AKT = assay: Western blot of TBI brain tissue, p-AKT; format: in vivo; conditions: rat brain cells following TBI; for p-Akt expression: activity expected analogous to 205
Experimental: as §2, §3

[2] = tested on: post-traumatic brain injured rats; assay: Behavioral motor performance (balance beam) test after TBI; format: in vivo, rat; conditions: for motor skills tests: rats post-TBI, activity expected analogous to 205
Experimental: as §1, §2
Balance Beam Test: The balance beam is a test of motor coordination (3-4). It is also a useful assay for sedation and joint pathology. Several beams are available. In general the round beams are harder than the square beams, and the thinner the beam the harder the test. In this test, animals have to walk and cross a round balance beam (like across one meter bridge-bar) to test their balance and motor skills. The score is recorded compared to sham group: • 100%: walk balance and cross whole balance beam. • 10%-90%: walk balance and cross balance beam from 10 cm to 90 cm. • 0%: walk unbalance and slip down

transformed cells = conditions: in vitro and in vivo; background; cited from earlier work
[3] = tested on: TBI damage area of rodent brain; assay: Pathological analysis (H & E staining) and gross appearance after TBI; format: in vivo, rat
Experimental: as §1, with “Sham-treated controls are treated similarly, but the impactor is not activated.” left out
as §2
Brain injury areas are measured and calculated post-TBI at 4 hours, day 1, and week (according to FIG. 9). […]

GFAP = assay: Immunofluorescence / immunohistochemistry after TBI, GFAP; format: in vivo, rat; conditions: vs sham and TBI untreated brains, FIG. 6
Experimental: as §2, §4

[4] = relative to SAHA; cited from earlier work
[5] = activity expected analogous to 205

Structure (SMILES)	glucose uptake levels [1]	Pro-Caspase 3 expression (Caspase 3; [5])	formation of new stem-like proliferative neural cells following TBI (Nestin; [5])	p-Akt expression (phosphorylated-AKT)	motor skills tests [2]	other results
Nc1ccc(NC(=O)CCCCCNC(=O)c2ccccc2S)cc1 [Compound 209]	increase	decrease	induce formation	increase	perform significantly better	
O=C(NCCCCCNC(=O)c1ccccc1S)c1cccnc1 [Compound 208]	increase	decrease	induce formation	increase	perform significantly better	
CN(C)c1ccc(NC(=O)CCCCCNC(=O)c2ccccc2S)cc1 [Compound 206]	increase	decrease	induce formation	increase	perform significantly better	
COc1ccc(S)c(C(=O)NCCCCCC(=O)Nc2ccccc2)c1 [Compound 211]	increase	decrease	induce formation	increase	perform significantly better	
O=C(NCCCCCCNC(=O)c1ccccc1S)c1ccccc1S [Compound 204]	increase	decrease	induce formation	increase	perform significantly better	
O=C(CCCCCNC(=O)c1ccccc1S)Nc1ccccc1 [Compound 201, 2-Mercapto-N-[5-(phenyl-3-ylcarbamoyl)pentyl]benzamide]	increase	decrease	induce formation	increase	perform significantly better	
O=C(CCCCCNC(=O)c1cc(Cl)ccc1S)Nc1cccnc1 [Compound 207a]	increase	decrease	induce formation	increase	perform significantly better	
O=C(NCCCCCCNC(=O)c1ccccc1O)c1ccccc1O [Compound 203]	increase	decrease	induce formation	increase	perform significantly better	
O=C(CCCCCCC(=O)Nc1ccccc1)NO [SAHA, Suberoylanilide hydroxamic acid]						growth arrest and death of transformed cells (transformed cells): causes growth arrest and death
O=C(CCCCCCCNC(=O)c1ccccc1S)Nc1ccccc1 [Compound 213]	increase	decrease	induce formation	increase	perform significantly better	
O=C(CCCCCCNC(=O)c1ccccc1S)Nc1ccccc1 [Compound 212]	increase	decrease	induce formation	increase	perform significantly better	
O=C(CCCCCNC(=O)c1cc(Cl)ccc1S)Nc1ccccc1 [Compound 210]	increase	decrease	induce formation	increase	perform significantly better	
O=C(CCCCCCCCCCNC(=O)c1ccccc1S)Nc1ccccc1 [Compound 214]	increase	decrease	induce formation	increase	perform significantly better	
O=C(CCCCCNC(=O)c1ccccc1S)Nc1cccnc1 [Compound 205, 2-Mercapto-N-[5-(pyridin-3-ylcarbamoyl)pentyl]benzamide]						glucose uptake levels at the site of injury (FDG-PET) ([1]; rats post-TBI, treated post-surgery at 4 h, 24 h and 48 h, FIG. 1): significantly increased; also recorded: increased glucose levels; angiogenic activity in the brain ([1]; rodent model of TBI, post-injury administration): up-regulated angiogenic activity; H & E staining: reactive gliosis and cellularity ([3]; FIG. 3): increased reactive gliosis (arrow) and more active brain cells observed; also recorded: increased reactive gliosis (as well as increased cellularity); gross appearance of TBI damage area / scarring ([3]; gross post-mortem examination, FIG. 2): improved; also recorded: much less scaring and less appearance of obvious injury; also recorded: reduced scarring; GFAP staining / expression (GFAP): increased; Cleaved Caspase 3 expression (Caspase 3; Western blot, FIG. 5a): significantly decreased; Pro-Caspase 3 expression (Caspase 3; FIG. 5a): decreased; formation of new stem-like proliferative neural cells following TBI (Nestin; following TBI): induced formation; Nestin staining / expression (Nestin; vs sham and TBI untreated brains, FIG. 6): increased; p-AKT expression (phosphorylated-AKT; FIG. 5b): increased; half-life in vivo [4]: longer half-life in vivo; behavioral motor performance (motor skill tests) ([2]; post-injury administration, 10 mg/kg, one meter bar, FIG. 4): improves behavioral performance; also recorded: performed significantly better
